From article PMC10372009, “Molecular basis of GDF15 induction and suppression by drugs in cardiomyocytes and cancer cells toward precision medicine” (Scientific Reports, 2023)

Columns and labels:
Assay type in all cases: cell-based, human
GDF15 [1] = assay: GDF15 secretion (ELISA) by hiPSC-CMs upon cardiotoxic drug treatment; conditions: 48 h; for fold increase of media concentration of GDF15: sublethal and highest (10 µM) concentrations, normalized by DMSO-only control; for GDF15 protein concentration: 1 µM drug
Text: As many anticancer drugs are cardiotoxic and GDF15 is a well-known biomarker for heart failure, we employed a human induced pluripotent stem cell-derived cardiomyocytes (hiPSC-CMs) model to investigate the effect of drug-induced cardiotoxicity on GDF15 expression in host tissues. To adequately replicate cardiotoxicity using this model, we selected drugs whose cardiotoxic effect in vivo is based on cytotoxicity to cardiomyocytes.
Figure 2 Effect of cardiotoxic drugs on hiPSC-CMs viability and GDF15 secretion and modes of action of applied drugs. (A) hiPSC-CMs viability after 48 h treatment with 20 cardiotoxic drugs. (B) Fold-change of GDF15 expression upon 48 h treatment with 20 cardiotoxic drugs and their reported modes of action. GDF15 expression upon treatment with 10 µM, sublethal drug concentrations and maximal GDF15 induction (from concentration series depicted in (C)). Mean fold-change of 4 biological replicates with a 95% confidence interval were normalized by DMSO-only control. (C) Drug-induced GDF15 expression for different drug concentrations. Fold-change of GDF15 protein concentration upon 48 h treatment with ten cardiotoxic drugs (marked with * in A and B).
(§1) Cardiotoxic drug (SCREEN-WELL® Cardiotoxicity library, BML-2850, ENZO) library was prepared by serial dilution of 10 mM stocks in DMSO to 9 different concentrations ranging from 0.001 to 10 mM, which were further diluted into assay plates to final concentrations ranging from 0.001 to 10 µM. […] The final concentration of DMSO for hiPSC-CMs assay was 0.1%. To investigate the influence of BET inhibitor treatment on doxorubicin induced GDF15 mRNA expression, hiPSC-CMs were pre-treated with 20 nM or 200 nM doxorubicin for 48 h and kept in medium without compound for 24 h before 24 h treatment with either 100 nM BI 894999 or 500 nM OTX015. […] Cancer cell lines were treated with 10 nM, 35 nM or 100 nM of BI 894999 for 4 h or 24 h (Supplementary Table S3).
(§2) For GDF15 mRNA quantification, total RNA was isolated from the cells using an RNeasy kit (Qiagen, 74106) to synthesize cDNA using a Taqman Reverse Transcription kit (Applied Biosystems, N8080234). Quantitative real-time PCR analysis was performed using QuantiNova SYBR Green PCR Kit (Qiagen, 208052) on a CFX96 Real-Time System (Bio-Rad) under the following amplification conditions: 95 °C for 2 min followed by 40 cycles of 95 °C for 5 s and 60 °C for 10 s. The primer sequences are GDF15-F: 5′-[…]-3′, GDF15-R: 5′-[…]-3′, ACTB-F: 5′-[…]-3′ and ACTB-R: 5′-[…]-3′. PCR data were analyzed using a modified relative expression software tool (REST) and the expression level of GDF15 gene was normalized to that of β-actin. For secreted GDF15 protein quantification, cell culture medium was collected after drug treatment and stored at − 20 °C until ELISA was performed using Human GDF-15 ELISA Kit (Abcam, ab155432) according to the manufacturer’s instruction. Resulting GDF15 concentrations were normalized to non-treated control and respective relative cell viability.

GDF15 [2] = assay: GDF15 gene expression of NCI-60 cancer cell lines treated with 15 anticancer drugs (public data, linear regression); conditions: data ref 34; for induction of GDF15 on average: NCI-60 cancer cell lines; for ratio of responsive cell lines (GDF15 induction): all NCI-60 cell lines, responsive: slope > 0.02 and R-squared > 0.5 within 24 h
Text: To get further insights into how chemotherapy influences GDF15 expression in cancer, we analyzed public gene expression data of NCI-60 cancer cell lines treated with 15 different anticancer drugs. We used linear regression to quantify the cell line’s drug-specific responsiveness regarding GDF15 induction and categorized the cell lines as “responsive” or “resistant”. Comparing the number of responsive cell lines per drug, we found the ratio of responsive cell lines ranged from 4% for sirolimus to 71% for sorafenib (Supplementary Figure S2). Drugs with DNA damaging properties tended to induce GDF15 more strongly than drugs with other modes of action.
Figure 3 NCI-60 cell line clustering. (A) Hierarchically clustered correlation matrix of GDF15 gene expression levels by NCI-60 cell lines upon 15 drug treatments. Pearson correlation coefficients were calculated evaluating linear regression slope of GDF15 expression within the first 24 h of drug treatment. Clustering of cell lines was performed using Weighted Pair Group Method with Arithmetic Mean (WPGMA) algorithm based on Pearson correlation coefficients. Four cell line clusters were identified. Tissue types of cell lines are color coded. (B) Drug-specific fraction of responsive NCI-60 cell lines in each identified cell line cluster for 15 anticancer drugs. Responsiveness was assumed when linear regression slope of GDF15 expression within 24 h of drug treatment was > 0.02 and R-squared > 0.5. (C) Predicted basally activated or inhibited pathways for the cell line cluster based on identified differences in gene expression.
We obtained basal gene expression values and mutational status of all cancer cell lines from our in-house cancer cell line database. Gene expression data of NCI-60 after compound treatment, basal protein expression, drug sensitivity data, gene dependency data, metabolite expression and compound specifications such as IC50 values and modes of action were collected from different studies and data bases, as described in the supplementary information.
Each NCI-60 cell line was assigned to an array containing 15 drug-specific linear regression slopes of GDF15 mean fold-change. We calculated the Pearson correlation coefficient for every cell line pair to build a 60 × 60 correlation matrix. For agglomerative hierarchical clustering, we applied a “Weighted Pair Group Method with Arithmetic Mean” (WPGMA) algorithm to the resulting correlation matrix. The identified clusters represent groups of cell lines that are closely positioned to each other in this 15-dimensional data set and therefore have more similarities regarding GDF15 expression upon treatment with the 15 drugs compared to cell lines of other clusters.
Supplementary Materials and Methods
Data collection of cancer cell line properties
Gene expression data of NCI-60 upon treatment with 15 anticancer compounds were collected from NCI-
60 Transcriptional Pharmacodynamics Workbench 11. […]

GDF15 [3] = assay: Doxorubicin-induced GDF15 secretion in hiPSC-CMs, simultaneous treatment with BET inhibitors (ELISA); conditions: simultaneous 100 nM doxorubicin and 0.1 to 1000 nM BET inhibitor, 48 h
Text: (§3) Host cells are known to contribute to elevated GDF15 levels in cachexia patients when exposed to drug toxicity. […] We plotted GDF15 fold-changes against the respective reported half maximal inhibitory concentrations (IC50) of each BET inhibitor for BRD2, BRD3 and BRD4, whenever available. GDF15 fold-change thereby meant the ratio of GDF15 expression induced by doxorubicin only and doxorubicin combined with BET inhibitor normalized to cell viability.
as §1, §2
Supplementary Figure S6. (A) Fold-change of GDF15 secretion by hiPSC-CMs after simultaneous
treatment with doxorubicin and seven BET Inhibitors for 48 h. Normalized to cell viability and non-treated […]

GDF15 [4] = assay: Doxorubicin-induced GDF15 mRNA expression in hiPSC-CMs, successive treatment with BET inhibitors (qPCR)
Text: as §3, §1
as §2, with “β-actin.” for “β-actin. For secreted GDF15 protein quantification, cell culture medium was collected after drug treatment and stored at − 20 °C until ELISA was performed using Human GDF-15 ELISA Kit (Abcam, ab155432) according to the manufacturer’s instruction. Resulting GDF15 concentrations were normalized to non-treated control and respective relative cell viability.”

## COc1cc(NS(C)(=O)=O)ccc1Nc1c2ccccc2nc2ccccc12 [Amsacrine]
GDF15 [1]
  fold increase of media concentration of GDF15: more than threefold

## CC(C)C[C@H](NC(=O)[C@H](Cc1ccccc1)NC(=O)c1cnccn1)B(O)O [Bortezomib]
GDF15 [2]; NCI-60 cluster B
  fraction of responsive cell lines in cluster B: all

## Cc1sc2c(c1C)C(c1ccc(Cl)cc1)=N[C@@H](CC(N)=O)c1nnc(C)n1-2 [CPI203]
GDF15 [3]
  effect on doxorubicin-induced GDF15 overexpression (secretion): suppressed

## COc1cccc2c1C(=O)c1c(O)c3c(c(O)c1C2=O)C[C@@](O)(C(=O)CO)C[C@@H]3O[C@H]1C[C@H](N)[C@H](O)[C@H](C)O1 [Doxorubicin]
GDF15 [1]
  fold increase of media concentration of GDF15: more than threefold
GDF15 [2]; NCI-60 cluster C
  fraction of responsive cell lines in cluster C: 63.6%
GDF15 [4]; doxorubicin treatment (20 or 200 nM)
  increase of GDF15 expression on RNA level: up to sevenfold

## CCN(CC)CCNC(=O)c1c(C)[nH]c(/C=C2\C(=O)Nc3ccc(F)cc32)c1C [Sunitinib]
GDF15 [2]
  induction of GDF15 on average: did not lead to notable GDF15 regulation

## COc1cc2c(cc1-c1c(C)noc1C)ncc1[nH]c(=O)n([C@H](C)c3ccccn3)c12 [I-BET151]
GDF15 [3]
  effect on doxorubicin-induced GDF15 overexpression (secretion): suppressed

## CO[C@H]1C[C@@H]2CC[C@@H](C)[C@@](O)(O2)C(=O)C(=O)N2CCCC[C@H]2C(=O)O[C@H]([C@H](C)C[C@@H]2CC[C@@H](O)[C@H](OC)C2)CC(=O)[C@H](C)/C=C(\C)[C@@H](O)[C@@H](OC)C(=O)[C@H](C)C[C@H](C)/C=C/C=C/C=C/1C [sirolimus]
GDF15 [2]
  ratio of responsive cell lines (GDF15 induction): 4%

## COc1cccc2c1C(=O)c1c(O)c3c(c(O)c1C2=O)C[C@@](O)(C(C)=O)C[C@@H]3O[C@H]1C[C@H](N)[C@H](O)[C@H](C)O1 [Daunorubicin]
GDF15 [1]
  GDF15 protein concentration: exceeded the upper limit of quantification

## CC(=O)[C@]1(O)Cc2c(O)c3c(c(O)c2[C@@H](O[C@H]2C[C@H](N)[C@H](O)[C@H](C)O2)C1)C(=O)c1ccccc1C3=O [Idarubicin]
GDF15 [1]
  GDF15 protein concentration: exceeded the upper limit of quantification
  fold increase of media concentration of GDF15: more than threefold

## CNC(=O)c1cc(Oc2ccc(NC(=O)Nc3ccc(Cl)c(C(F)(F)F)c3)cc2)ccn1 [sorafenib]
GDF15 [2]
  induction of GDF15 on average: threefold
  ratio of responsive cell lines (GDF15 induction): 71%
GDF15 [2]; NCI-60 cluster A
  fraction of responsive cell lines in cluster A: all

## Cc1sc2c(c1C)C(c1ccc(Cl)cc1)=N[C@@H](CC(=O)Nc1ccc(O)cc1)c1nnc(C)n1-2 [OTX015]
GDF15 [4]; BET inhibitor given subsequently to doxorubicin
  effect on doxorubicin-induced GDF15 overexpression (mRNA): suppressed
GDF15 [3]
  effect on doxorubicin-induced GDF15 overexpression (secretion): suppressed

## COc1ccccc1S(=O)(=O)Nc1ccc2c(c1)CN(C)C(=O)N2 [PFI-1]
GDF15 [3]
  effect on doxorubicin-induced GDF15 overexpression (secretion): suppressed

## CC[C@@]1(O)C(=O)OCc2c1cc1n(c2=O)Cc2cc3ccccc3nc2-1 [Camptothecin]
GDF15 [1]
  fold increase of media concentration of GDF15: more than threefold

## Nc1ncn([C@@H]2O[C@H](CO)[C@@H](O)[C@H]2O)c(=O)n1 [azacytidine]
GDF15 [2]; NCI-60 cluster D
  fraction of responsive cell lines in cluster D: all

## COc1cc([C@@H]2c3cc4c(cc3[C@@H](O[C@@H]3O[C@@H]5CO[C@@H](C)O[C@H]5[C@H](O)[C@H]3O)[C@H]3COC(=O)[C@H]23)OCO4)cc(OC)c1O [Etoposide]
GDF15 [1]
  fold increase of media concentration of GDF15: more than threefold
